Data on 1 molecule can be found in US11549123B2, “Plant EPSP synthases and methods of use” (PIONEER HI-BRED INTERNATIONAL, INC., priority 2015, dated 2023).

Substitutions are numbered along the chain they refer to.

Usually Ki stands for the equilibrium dissociation constant of an inhibitor or competing ligand from its target.

Test [1] concerns the target T1, Zea mays EPSPS variant Zm-H6 (868-H6) with V87T (H6-V87T) (Zea mays, UniProt O24566, A1R/A3W/A415G/A71Q/D401G/E301S/E390G/G101A/I207L/K83R/L97C/T278A/T360S/T440Q/V437R/V86T).
T1 construct: 868-H6 plus V87T; E. coli BL21(DE3), Ni-NTA purified
T1 sequence (O24566 with tags, fused parts or gaps A1R/A3W/A71Q/K83R/V86T/L97C/G101A/I207L/T278A/E301S/T360S/E390G/D401G/A415G/V437R/T440Q): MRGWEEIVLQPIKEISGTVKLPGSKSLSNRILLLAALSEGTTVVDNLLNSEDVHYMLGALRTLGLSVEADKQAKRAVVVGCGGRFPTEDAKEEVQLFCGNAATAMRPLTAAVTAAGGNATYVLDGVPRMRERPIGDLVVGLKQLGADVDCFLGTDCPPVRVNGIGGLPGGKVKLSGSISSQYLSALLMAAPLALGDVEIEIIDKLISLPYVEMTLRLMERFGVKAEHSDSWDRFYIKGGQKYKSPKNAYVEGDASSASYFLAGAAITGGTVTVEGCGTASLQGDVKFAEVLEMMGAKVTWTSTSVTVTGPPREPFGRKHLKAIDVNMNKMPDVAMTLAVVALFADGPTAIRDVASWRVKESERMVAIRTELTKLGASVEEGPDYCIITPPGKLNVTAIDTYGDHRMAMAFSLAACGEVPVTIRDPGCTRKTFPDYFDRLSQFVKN
In words: Rapid two-rate method for (kcat/KM)*KI, H6-V87T. The conditions noted are these: [E] 0.07 uM, [Gly] 1000 uM. It is filed as biochemical. The text has this:
There are several practical considerations for accurately estimating (kcat/KM)*KI with the rapid method. […] 2) The inhibitor concentration must be adjusted so as to obtain a degree of inhibition that minimally amplifies the error in the term v0-vi in Equation 3. If inhibition is too little, v0-vi will be small, and the error in the multiplier vi×v0/(v0-vi) will be large. […] 3) Substrate concentration should be set at the approximate KM of the parental variant(s), subject to the sensitivity of the assay. High substrate concentration obscures sensitivity to the inhibitor and reduces stringency for capturing improvements in KM. Depending on the necessity for speed, there exists opportunity for customizing enzyme and inhibitor concentrations. […] The rapid method was repeated for those and obtained data that correlated better with data obtained by substrate saturation analysis. For screening purposes however, that correlation step is not necessary. Conditions can be set so that variants with a pre-determined minimal fitness level are accurately quantified.
In Table 15, parameters above the heavy line for the rapid method were obtained under standard conditions. For variants shown below the heavy line, the rapid analysis was repeated with enzyme or glyphosate concentrations adjusted as needed to generate sufficient signal within the limits for linear initial rates.

Test [2] relates to Glycine max (93Y21) hairy root. In words: Hairy root growth from transformed soybean cotyledons with or without 25 uM glyphosate. The format is cell-based. The conditions noted are these: medium containing 25 uM glyphosate.
The target of test [3] is T2, Zea mays EPSPS variant Zm-P107S (Zea mays, UniProt O24566, P106S).
T2 construct: native maize plus P107S; E. coli BL21(DE3), Ni-NTA purified
T2 sequence (O24566 with tags, fused parts or gaps P106S): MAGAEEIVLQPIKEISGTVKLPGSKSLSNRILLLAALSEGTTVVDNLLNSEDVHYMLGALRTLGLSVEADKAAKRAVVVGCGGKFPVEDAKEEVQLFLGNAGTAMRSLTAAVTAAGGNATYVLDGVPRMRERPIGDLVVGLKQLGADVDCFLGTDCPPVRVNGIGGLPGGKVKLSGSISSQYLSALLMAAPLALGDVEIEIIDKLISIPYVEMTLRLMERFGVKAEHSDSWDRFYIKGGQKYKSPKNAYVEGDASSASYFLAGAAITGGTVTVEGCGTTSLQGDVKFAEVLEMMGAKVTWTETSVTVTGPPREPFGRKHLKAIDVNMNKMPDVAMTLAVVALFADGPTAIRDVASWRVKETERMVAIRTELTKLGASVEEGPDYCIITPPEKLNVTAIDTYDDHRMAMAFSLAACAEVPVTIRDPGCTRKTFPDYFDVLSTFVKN
The test is described as follows: Substrate saturation kinetic analysis with glyphosate, Zm-P107S. It is filed as biochemical.

Test [4] concerns the target T3, Zea mays EPSPS variant Zm-H6 (868-H6) with H54E (H6-H54E) (Zea mays, UniProt O24566, A1R/A3W/A415G/A71Q/D401G/E301S/E390G/G101A/H53E/I207L/K83R/L97C/T278A/T360S/T440Q/V437R).
T3 construct: 868-H6 plus H54E; E. coli BL21(DE3), Ni-NTA purified
T3 sequence (O24566 with tags, fused parts or gaps A1R/A3W/H53E/A71Q/K83R/L97C/G101A/I207L/T278A/E301S/T360S/E390G/D401G/A415G/V437R/T440Q): T1 sequence (O24566 with tags, fused parts or gaps A1R/A3W/A71Q/K83R/V86T/L97C/G101A/I207L/T278A/E301S/T360S/E390G/D401G/A415G/V437R/T440Q) with H54E, T87V
The test is described as follows: Substrate saturation kinetic analysis with glyphosate, H6-H54E. The format is biochemical.

Test [5] has as its target T1, Zea mays EPSPS variant Zm-H6 (868-H6) with V87T (H6-V87T). In words: Substrate saturation kinetic analysis with glyphosate, H6-V87T. It is filed as biochemical.

In the case of `O=C(O)CNCP(=O)(O)O` [glyphosate, N-phosphonomethylglycine], the “(kcat/KM)*KI” value in test [1] stood at 3190; in test [3] (substrate saturation, Zm-P107S) it was 51; in test [4] (substrate saturation, H6-H54E), 4340; in test [5] (substrate saturation, H6-V87T), 3280. Moreover, the “root growth of untransformed cotyledons” value in test [2] is “no growth”. For the same molecule, the values for the Ki in test [3], in test [4] and in test [5] were 0.42 µM, 488 µM and 348 µM, respectively.
